Results: PubChem BioAssay (NCI)
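Each compound was tested at five concentrations against cells in 96-well plates for 48 hours. TGI marks complete inhibition of growth.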

Legend:
Assay in all cases: growth of human tumour cells (NCI), 48 h
786-0 renal = system: 786-0 renal
A498 renal = system: A498 renal
A549 NSCLC = system: A549 NSCLC
ACHN renal = system: ACHN renal
CAKI-1 renal = system: CAKI-1 renal
CCRF-CEM leukemia = system: CCRF-CEM leukemia
COLO 205 colon = system: COLO 205 colon
DLD-1 colon = system: DLD-1 colon
DMS 114 small cell lung = system: DMS 114 small cell lung
EKVX NSCLC = system: EKVX NSCLC
HCC-2998 colon = system: HCC-2998 colon
HCT-116 colon = system: HCT-116 colon
HCT-15 colon = system: HCT-15 colon
HL-60(TB) leukemia = system: HL-60(TB) leukemia
HOP-18 NSCLC = system: HOP-18 NSCLC
HOP-62 NSCLC = system: HOP-62 NSCLC
HOP-92 NSCLC = system: HOP-92 NSCLC
HT29 colon = system: HT29 colon
IGROV1 ovarian = system: IGROV1 ovarian
K-562 leukemia = system: K-562 leukemia
KM12 colon = system: KM12 colon
KM20L2 colon = system: KM20L2 colon
LOX IMVI melanoma = system: LOX IMVI melanoma
LXFL 529 NSCLC = system: LXFL 529 NSCLC
M14 melanoma = system: M14 melanoma
M19-MEL melanoma = system: M19-MEL melanoma
MALME-3M melanoma = system: MALME-3M melanoma
MOLT-4 leukemia = system: MOLT-4 leukemia
NCI-H226 lung = system: NCI-H226 lung
NCI-H23 lung = system: NCI-H23 lung
NCI-H460 lung = system: NCI-H460 lung
NCI-H522 lung = system: NCI-H522 lung
OVCAR-3 ovarian = system: OVCAR-3 ovarian
OVCAR-4 ovarian = system: OVCAR-4 ovarian
OVCAR-5 ovarian = system: OVCAR-5 ovarian
OVCAR-8 ovarian = system: OVCAR-8 ovarian
RPMI-8226 leukemia = system: RPMI-8226 leukemia
RXF 393 renal = system: RXF 393 renal
RXF-631 renal = system: RXF-631 renal
SF-268 CNS = system: SF-268 CNS
SF-295 CNS = system: SF-295 CNS
SF-539 CNS = system: SF-539 CNS
SK-MEL-2 melanoma = system: SK-MEL-2 melanoma
SK-MEL-28 melanoma = system: SK-MEL-28 melanoma
SK-MEL-5 melanoma = system: SK-MEL-5 melanoma
SK-OV-3 ovarian = system: SK-OV-3 ovarian
SN12C renal = system: SN12C renal
SNB-19 CNS = system: SNB-19 CNS
SNB-75 CNS = system: SNB-75 CNS
SNB-78 CNS = system: SNB-78 CNS
SR leukemia = system: SR leukemia
SW-620 colon = system: SW-620 colon
TK-10 renal = system: TK-10 renal
U251 CNS = system: U251 CNS
UACC-257 melanoma = system: UACC-257 melanoma
UACC-62 melanoma = system: UACC-62 melanoma
UO-31 renal = system: UO-31 renal
XF 498 CNS = system: XF 498 CNS
DMS 273 small cell lung = system: DMS 273 small cell lung

For `O=C(NCc1cccnc1)C1COc2cc(-c3cc(=O)c4ccccc4o3)ccc2O1` (stereo not given), the TGI (786-0 renal) was > 81.7 µM, the TGI (A498 renal) was 99.7 µM and the TGI (A549 NSCLC) was > 100 µM. The TGI (ACHN renal) was > 72.9 µM, the TGI (CAKI-1 renal) was > 84.3 µM and the TGI (CCRF-CEM leukemia) was > 100 µM. For the same compound, the TGI (COLO 205 colon) was > 100 µM, the TGI (DLD-1 colon) was > 100 µM and the TGI (DMS 114 small cell lung) was > 79.5 µM. The TGI (EKVX NSCLC) was > 100 µM, the TGI (HCC-2998 colon) was > 100 µM and the TGI (HCT-116 colon) was > 100 µM. For the same compound, the TGI (HCT-15 colon) was > 100 µM, the TGI (HL-60(TB) leukemia) was > 46.4 µM and the TGI (HOP-18 NSCLC) was > 100 µM. For the same compound, the TGI (HOP-62 NSCLC) was 24.8 µM, the TGI (HOP-92 NSCLC) was > 100 µM and the TGI (HT29 colon) was > 100 µM. For the same compound, the TGI (IGROV1 ovarian) was > 100 µM, the TGI (K-562 leukemia) was > 100 µM and the TGI (KM12 colon) was > 100 µM. The TGI (KM20L2 colon) was > 100 µM, the TGI (LOX IMVI melanoma) was > 63.1 µM and the TGI (LXFL 529 NSCLC) was > 100 µM. For the same compound, the TGI (M14 melanoma) was > 100 µM, the TGI (M19-MEL melanoma) was > 100 µM and the TGI (MALME-3M melanoma) was > 100 µM. The TGI (MOLT-4 leukemia) was > 100 µM, the TGI (NCI-H226 lung) was > 57.1 µM and the TGI (NCI-H23 lung) was > 100 µM. The TGI (NCI-H460 lung) was > 100 µM, the TGI (NCI-H522 lung) was > 100 µM and the TGI (OVCAR-3 ovarian) was > 100 µM. The TGI (OVCAR-4 ovarian) was > 100 µM, the TGI (OVCAR-5 ovarian) was > 100 µM and the TGI (OVCAR-8 ovarian) was > 55 µM. For the same compound, the TGI (RPMI-8226 leukemia) was > 100 µM, the TGI (RXF 393 renal) was > 61.2 µM and the TGI (RXF-631 renal) was > 100 µM. The TGI (SF-268 CNS) was > 55.2 µM, the TGI (SF-295 CNS) was > 69.8 µM and the TGI (SF-539 CNS) was 16.4 µM. For the same compound, the TGI (SK-MEL-2 melanoma) was > 68.7 µM, the TGI (SK-MEL-28 melanoma) was > 28.7 µM and the TGI (SK-MEL-5 melanoma) was > 100 µM. The TGI (SK-OV-3 ovarian) was > 100 µM, the TGI (SN12C renal) was > 78 µM and the TGI (SNB-19 CNS) was > 67.2 µM. The TGI (SNB-75 CNS) was 28.8 µM, the TGI (SNB-78 CNS) was > 100 µM and the TGI (SR leukemia) was > 100 µM. For the same compound, the TGI (SW-620 colon) was > 100 µM, the TGI (TK-10 renal) was > 83.4 µM and the TGI (U251 CNS) was > 100 µM. For the same compound, the TGI (UACC-257 melanoma) was > 100 µM, the TGI (UACC-62 melanoma) was > 100 µM and the TGI (UO-31 renal) was > 100 µM. For the same compound, the TGI (XF 498 CNS) was 72.1 µM.

In the case of `NC(=O)/C(=N\NC(=O)C[n+]1ccccc1)C1NC(=O)NC1=O` (stereo not given), the TGI (786-0 renal) is reported as > 100 µM, the TGI (A498 renal) is reported as > 100 µM and the TGI (A549 NSCLC) is reported as > 100 µM. The TGI (ACHN renal) was > 100 µM, the TGI (CAKI-1 renal) was > 100 µM and the TGI (CCRF-CEM leukemia) was > 100 µM. The TGI (COLO 205 colon) was > 100 µM, the TGI (DLD-1 colon) was > 100 µM and the TGI (DMS 114 small cell lung) was > 100 µM. For the same compound, the TGI (DMS 273 small cell lung) was > 100 µM, the TGI (EKVX NSCLC) was > 100 µM and the TGI (HCC-2998 colon) was > 100 µM. The TGI (HCT-116 colon) was > 100 µM, the TGI (HCT-15 colon) was > 100 µM and the TGI (HL-60(TB) leukemia) was > 100 µM. For the same compound, the TGI (HOP-18 NSCLC) was > 100 µM, the TGI (HOP-62 NSCLC) was > 100 µM and the TGI (HOP-92 NSCLC) was > 100 µM. For the same compound, the TGI (HT29 colon) was > 100 µM, the TGI (IGROV1 ovarian) was > 100 µM and the TGI (K-562 leukemia) was > 100 µM. For the same compound, the TGI (KM12 colon) was > 100 µM, the TGI (KM20L2 colon) was > 100 µM and the TGI (LOX IMVI melanoma) was > 100 µM. For the same compound, the TGI (LXFL 529 NSCLC) was > 100 µM, the TGI (M14 melanoma) was > 100 µM and the TGI (M19-MEL melanoma) was > 100 µM. For the same compound, the TGI (MALME-3M melanoma) was > 100 µM, the TGI (MOLT-4 leukemia) was > 100 µM and the TGI (NCI-H226 lung) was > 100 µM. For the same compound, the TGI (NCI-H23 lung) was > 100 µM, the TGI (NCI-H460 lung) was > 100 µM and the TGI (OVCAR-3 ovarian) was > 100 µM. The TGI (OVCAR-4 ovarian) was > 100 µM, the TGI (OVCAR-5 ovarian) was > 100 µM and the TGI (OVCAR-8 ovarian) was > 100 µM. The TGI (RPMI-8226 leukemia) was > 100 µM, the TGI (RXF 393 renal) was > 100 µM and the TGI (RXF-631 renal) was > 100 µM. For the same compound, the TGI (SF-268 CNS) was > 100 µM, the TGI (SF-295 CNS) was > 100 µM and the TGI (SF-539 CNS) was > 100 µM. For the same compound, the TGI (SK-MEL-2 melanoma) was > 100 µM, the TGI (SK-MEL-28 melanoma) was > 100 µM and the TGI (SK-MEL-5 melanoma) was > 100 µM. For the same compound, the TGI (SK-OV-3 ovarian) was > 100 µM, the TGI (SN12C renal) was > 100 µM and the TGI (SNB-19 CNS) was > 100 µM. For the same compound, the TGI (SNB-75 CNS) was > 100 µM, the TGI (SNB-78 CNS) was > 100 µM and the TGI (SR leukemia) was > 100 µM. For the same compound, the TGI (SW-620 colon) was > 100 µM, the TGI (TK-10 renal) was > 100 µM and the TGI (UACC-257 melanoma) was > 100 µM. The TGI (UACC-62 melanoma) was > 100 µM, the TGI (UO-31 renal) was > 100 µM and the TGI (XF 498 CNS) was > 100 µM.
